Activity calls are given as the source filed them. The rule behind the calls is not given here.
Assays:
A-375 [1] = test: Cytotoxicity against vemurafenib-sensitive human A375 cells assessed as cell viability at 10 uM after 48 hrs by trypan blue exclusion assay relative to control; format: functional; conditions: A-375, 48 h, read-out: Activity
A-375 [2] = test: Cytotoxicity against vemurafenib-sensitive human A375 cells assessed as cell viability at 5 uM after 48 hrs by trypan blue exclusion assay relative to control; format: functional; conditions: A-375, 48 h, read-out: Activity
[3] = Cytotoxicity against vemurafenib-resistant human A375 R5C3 cells assessed as cell viability at 10 uM after 48 hrs by trypan blue exclusion assay relative to control; format: functional; conditions: A-375, 48 h, read-out: Activity
[4] = Cytotoxicity against vemurafenib-resistant human A375 R5C3 cells assessed as cell viability at 1 uM after 48 hrs by trypan blue exclusion assay relative to control; format: functional; conditions: A-375, 48 h, read-out: Activity
[5] = Cytotoxicity against vemurafenib-resistant human A375 RIV cells assessed as cell viability at 10 uM after 48 hrs by trypan blue exclusion assay relative to control; format: functional; conditions: A-375, 48 h, read-out: Activity
[6] = Cytotoxicity against vemurafenib-resistant human A375 RIV cells assessed as cell viability at 1 uM after 48 hrs by trypan blue exclusion assay relative to control; format: functional; conditions: A-375, 48 h, read-out: Activity
[7] = Cytotoxicity against vemurafenib-resistant human A375 RIV cells assessed as cell viability at 5 uM after 48 hrs by trypan blue exclusion assay relative to control; format: functional; conditions: A-375, 48 h, read-out: Activity
K562 [8] = test: Cytotoxicity against imatinib-sensitive human K562 cells assessed as cell viability at 10 uM after 48 hrs by trypan blue exclusion assay relative to control; format: functional; conditions: K562, 48 h, read-out: Activity
K562 [9] = test: Cytotoxicity against imatinib-resistant human K562 cells assessed as cell viability at 10 uM after 48 hrs by trypan blue exclusion assay relative to control; format: functional; conditions: K562, 48 h, read-out: Activity
BXPC-3 [10] = test: Cytotoxicity against gemcitabine-sensitive human BxPC3 cells assessed as cell viability at 10 uM after 48 hrs by trypan blue exclusion assay relative to control; format: functional; conditions: BXPC-3, 48 h, read-out: Activity
MIA PaCa-2 [11] = test: Cytotoxicity against gemcitabine-resistant human MIAPaCa2 cells assessed as cell viability at 10 uM after 48 hrs by trypan blue exclusion assay relative to control; format: functional; conditions: MIA PaCa-2, 48 h, read-out: Activity
A-375 [12] = test: Cytotoxicity against vemurafenib-sensitive human A375 cells assessed as reduction in cell viability after 48 hrs by trypan blue exclusion assay; format: functional, cell-based; conditions: A-375, 48 h
[13] = Cytotoxicity against vemurafenib-resistant human A375 RIV cells assessed as reduction in cell viability after 48 hrs by trypan blue exclusion assay; format: functional, cell-based; conditions: A-375, 48 h
[14] = Cytotoxicity against vemurafenib-resistant human A375 R5C3 cells assessed as reduction in cell viability after 48 hrs by trypan blue exclusion assay; format: functional, cell-based; conditions: A-375, 48 h
K562 [15] = test: Cytotoxicity against imatinib-sensitive human K562 cells assessed as reduction in cell viability after 48 hrs by trypan blue exclusion assay; format: functional, cell-based; conditions: K562, 48 h
K562 [16] = test: Cytotoxicity against imatinib-resistant human K562 cells assessed as reduction in cell viability after 48 hrs by trypan blue exclusion assay; format: functional, cell-based; conditions: K562, 48 h
BXPC-3 [17] = test: Cytotoxicity against gemcitabine-sensitive human BxPC3 cells assessed as reduction in cell viability after 48 hrs by trypan blue exclusion assay; format: functional, cell-based; conditions: BXPC-3, 48 h
MIA PaCa-2 [18] = test: Cytotoxicity against gemcitabine-resistant human MIAPaCa2 cells assessed as reduction in cell viability after 48 hrs by trypan blue exclusion assay; format: functional, cell-based; conditions: MIA PaCa-2, 48 h
[19] = Cytotoxicity against human keratinocytes assessed as cell viability at 5 uM after 48 hrs by trypan blue exclusion assay relative to control; format: cell-based, Keratinocyte; conditions: read-out: Activity
[20] = Cytotoxicity against human fibroblasts assessed as cell viability at 5 uM after 48 hrs by trypan blue exclusion assay relative to control; format: cell-based, Fibroblast; conditions: read-out: Activity
[21] = Cytotoxicity against human keratinocytes assessed as cell viability at 10 uM after 48 hrs by trypan blue exclusion assay relative to control; format: cell-based, Keratinocyte; conditions: read-out: Activity
[22] = Cytotoxicity against human fibroblasts assessed as cell viability at 10 uM after 48 hrs by trypan blue exclusion assay relative to control; format: cell-based, Fibroblast; conditions: read-out: Activity
A-375 [23] = test: Inhibition of colony formation in human A375 cells at 5 uM after 10 days by crystal violet staining based assay relative to control; format: functional; conditions: A-375, 240 h
A-375 [24] = test: Inhibition of colony formation in human A375 cells at 10 uM after 10 days by crystal violet staining based assay relative to control; format: functional; conditions: A-375, 240 h
A-375 [25] = test: Inhibition of colony formation in human A375 cells after 10 days by crystal violet staining based assay; format: functional, cell-based
A-375 [26] = test: Induction of apoptosis in human A375 cells assessed as cells with active caspase-3 at 10 uM after 48 hrs by flow cytometry (reference value: 4.16%); format: functional
A-375 [27] = test: Induction of apoptosis in human A375 cells assessed as increase in cleaved PARP expression at 10 uM after 24 hrs by Western blot analysis; format: functional, cell-based
A-375 [28] = test: Induction of autophagy in human A375 cells assessed as increase in LC3-1 to LC3-2 conversion at 10 uM after 24 hrs by Western blot analysis; format: functional, cell-based
A-375 [29] = test: Induction of autophagy in human A375 cells assessed as increase in LC3-2 expression at 10 uM after 12 hrs by Hoechst staining based immunofluorescence method; format: functional, cell-based
A-375 [30] = test: Induction of apoptosis in human A375 cells assessed as increase in cleaved PARP expression at 10 uM after 48 hrs in presence of pan-caspase inhibitor QVD by Western blot analysis; format: functional, cell-based
A-375 [31] = test: Induction of autophagy in human A375 cells assessed as increase in LC3B-2 expression at 10 uM after 48 hrs in presence of LC3 siRNA by Western blot analysis; format: functional, cell-based
A-375 [32] = test: Cytotoxicity against human A375 cells assessed as reduction in cell viability at 10 uM after 48 hrs in presence of pan-caspase inhibitor QVD/LC3 siRNA by trypan blue exclusion assay; format: functional, cell-based
[33] = Half life in mouse liver microsomes at 37 degC; format: ADME, Microsome
[34] = Terminal half life in mouse at 1 mg/kg, iv; format: ADME, organism-based; conditions: in vivo, read-out: beta t1/2
[35] = Total clearance in mouse at 1 mg/kg, iv measured 2 hrs post dose; format: ADME, organism-based; conditions: in vivo
[36] = Volume of distribution in mouse at 1 mg/kg, iv measured 2 hrs post dose; format: ADME, organism-based; conditions: in vivo
[37] = AUC (0 to 2 hrs) in mouse at 1 mg/kg, iv; format: ADME, organism-based; design: dose 1 mg/kg, time < 2 hr, route intravenous; conditions: in vivo
[38] = Toxicity in mouse assessed as behavioral modification at 1 mg/kg, iv; format: organism-based; conditions: in vivo
A-375 [39] = test: Antitumor activity against human A375 cells xenografted in immuno-deficient nude Balb/c mouse assessed as tumor growth inhibition at 0.7 mg/kg/day, ip measured on day 31 post treatment; format: functional, organism-based
[40] = Toxicity in nude Balb/c mouse xenografted with human A375 cells assessed as behavioral modification at 0.7 mg/kg/day, ip; format: organism-based; conditions: in vivo
[41] = Toxicity in nude Balb/c mouse xenografted with human A375 cells assessed as effect on body mass at 0.7 mg/kg/day, ip; format: organism-based; conditions: in vivo
[42] = Toxicity in nude Balb/c mouse xenografted with human A375 cells assessed as diet disturbance at 0.7 mg/kg/day, ip; format: organism-based; conditions: in vivo
A-375 [43] = test: Induction of apoptosis in human A375 cells xenografted in immuno-deficient nude Balb/c mouse assessed as increase in cleaved PARP expression in tumor at 0.7 mg/kg/day, ip measured on day 31 post treatment by Western blot analysis; format: functional, organism-based
A-375 [44] = test: Induction of autophagy in human A375 cells xenografted in immuno-deficient nude Balb/c mouse assessed as increase in LC3-2 expression in tumor at 0.7 mg/kg/day, ip measured on day 31 post treatment by Western blot analysis; format: functional, organism-based
A-375 [45] = test: Inhibition of colony formation in human A375 cells assessed as induction of less dense colony level at 5 and 10 uM after 10 days by crystal violet staining based assay relative to control; format: functional, cell-based

Compound: CCCCCCC#Cc1ccc(S(=O)(=O)Nc2cccc(-c3csc(NC(C)=O)n3)c2)cc1
- viability at 10 µM (A-375 [1]): < 1%
- viability at 5 µM (A-375 [2]): < 1%
- viability at 10 µM [3]: < 1%
- viability at 1 µM [4]: 83%
- viability at 10 µM [5]: < 1%
- viability at 1 µM [6]: 12%
- viability at 5 µM [7]: 0.3%
- viability at 10 µM (K562 [8]): 0.6%
- viability at 10 µM (K562 [9]): 3.4%
- viability at 10 µM (BXPC-3 [10]): < 1%
- viability at 10 µM (MIA PaCa-2 [11]): < 1%
- EC50 (A-375 [12]): 560 nM
- EC50 [13]: 480 nM
- EC50 [14]: 1320 nM
- EC50 (K562 [15]): 1420 nM
- EC50 (K562 [16]): 1620 nM
- EC50 (BXPC-3 [17]): 380 nM
- EC50 (MIA PaCa-2 [18]): 640 nM
- viability at 48 h, 5 µM [19]: 91.2%
- viability at 48 h, 5 µM [20]: 91.5%
- viability at 48 h, 10 µM [21]: 93.4%
- viability at 48 h, 10 µM [22]: 85.1%
- inhibition at 5 µM (A-375 [23]): 77%
- inhibition at 10 µM (A-375 [24]): 94%
- inhibition (A-375 [25]): Dose-dependent effect
- Activity (A-375 [26]): 48 - 48.4%
- Activity (A-375 [27]): Active
- Activity (A-375 [28]): Active
- Activity (A-375 [29]): Active
- Activity (A-375 [30]): inactive
- Activity (A-375 [31]): inactive
- Activity (A-375 [32]): inactive
- half-life [33]: > 45 min
- half-life [34]: 47 min
- clearance [35]: 43 mL/min/kg
- Vd [36]: 2.91 L/kg
- AUC(0-t) at 2 h [37]: 389 ng·h/mL
- Activity [38]: Non-Toxic
- TGI (A-375 [39]): Active
- Activity [40]: Non-Toxic
- Activity [41]: Non-Toxic
- Activity [42]: Non-Toxic
- Activity (A-375 [43]): Active
- Activity (A-375 [44]): Active
- inhibition (A-375 [45]): Active

Source: ChEMBL document CHEMBL4428084, “Discovery and Optimization of N-(4-(3-Aminophenyl)thiazol-2-yl)acetamide as a Novel Scaffold Active against Sensitive and Resistant Cancer Cells” (J Med Chem, 2016)
